Test results taken from patent US20210038607A1, “OXADIAZOLYLTHIOPHENE DERIVATIVES USEFUL AS HISTONE DEACETYLASE INHIBITORS” (Karus Therapeutics Limited, priority 2018, published 2021).

What was measured:
Human HDAC2 = target: T1, Human HDAC2 (Homo sapiens, UniProt Q92769); assay: HDAC2 biochemical assay, AMC-labeled peptide substrate; details: read-out: HDAC Isoform IC50 (nM) 2
T1 construct: full length with C-terminal GST-tag; GST (C); host or cells: baculovirus expression system
Experimental: (§1) Activity against all zinc-dependent HDACs 1 to 11 was assessed by using an acetylated AMC-labeled peptide substrate. The substrate RHKK(Ac)AMC was used for HDAC1, HDAC2, HDAC3, HDAC6 and HDAC10; the substrate used for HDAC8 was RHK(Ac)K(Ac)AMC. Activity against the class IIa HDACs (HDAC4, 5, 7, 9) and HDAC11 was determined using a class IIa-specific substrate, BOC-Lys(trifluoroacetyl)-AMC (“Trifluoroacetyl Lysine”; see Lahm et al, 2007, PNAS, 104, 17335-17340). All assays were based on the AMC-labeled substrate and developer combination.
(§2) The protocol involved a two-step reaction: first, the substrate with the acetylated lysine side chain is incubated with a sample containing HDAC activity, to produce the deacetylated products, which are then digested in the second step by the addition of developer to produce the fluorescent signal proportional to the amount of deacetylated substrates.
Human HDAC2 (GenBank Accession No. NM_001527), full length with C-terminal GST-tag, MW=82.9 kDa, expressed inbaculovirus expression system.
(§3) Assay Buffer: 50 mM Tris-HCl, pH8.0, 137 mM NaCl, 2.7 mM KCl, 1 mM MgC2. Before use, 1 mg/mL BSA and DMSO are added.
HDAC2: 0.07 ng/ul HDAC2 and 50 μM HDAC substrate are in the reaction buffer with 1% DMSO final. Incubate for 1 hour at 30° C.
(§4) Stage 1: Deacetylation of substrate by incubation of HDAC enzymes with compounds
(§5) Stage 2: Development by addition of Developer to digest the deacetylated substrate, and generate the fluorescent colour; Detection: 360/460 Ex/Em

[1] = target: T2, Complex of human HDAC3 and human NCOR2 (Homo sapiens, UniProt O15379); assay: HDAC3 biochemical assay, AMC-labeled peptide substrate; details: read-out: HDAC Isoform IC50 (nM) 3
T2 construct: full length with C-terminal His tag, MW=49.7 kDa; His (C); host or cells: baculovirus expression system (co-expressed)
T2 sequence (O15379 whole entry, canonical isoform): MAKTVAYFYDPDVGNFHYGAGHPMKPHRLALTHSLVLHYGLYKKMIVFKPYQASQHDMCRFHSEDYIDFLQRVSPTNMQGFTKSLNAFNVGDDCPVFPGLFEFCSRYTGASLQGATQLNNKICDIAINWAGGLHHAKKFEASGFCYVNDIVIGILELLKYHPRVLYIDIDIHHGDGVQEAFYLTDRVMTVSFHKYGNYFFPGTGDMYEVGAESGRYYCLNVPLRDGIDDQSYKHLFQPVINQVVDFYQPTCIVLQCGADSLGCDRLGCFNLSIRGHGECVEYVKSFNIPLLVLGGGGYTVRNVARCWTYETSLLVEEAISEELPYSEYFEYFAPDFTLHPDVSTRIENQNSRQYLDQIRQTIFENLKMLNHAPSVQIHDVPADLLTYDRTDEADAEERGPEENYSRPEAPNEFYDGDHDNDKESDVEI
T2 sequence (Q9Y618 395-489 partner limits assumed): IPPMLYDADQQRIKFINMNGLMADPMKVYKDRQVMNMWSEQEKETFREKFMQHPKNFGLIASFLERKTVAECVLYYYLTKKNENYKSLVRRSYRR
Experimental: as §1, §2
Complex of human HDAC3 (GenBank Accession No. NM_003883), full length with C-terminal His tag, MW=49.7 kDa, and human NCOR2 (amino acid 395-489) (GenBank Accession No. NM_006312), N-terminal GST tag, MW=37.6 kDa, co-expressed in baculovirus expression system.
as §3
HDAC3: 0.1 ng/ul HDAC3 and 50 μM HDAC substrate are in the reaction buffer with 1% DMSO final. Incubate for 1 hour at 30° C.
as §4, §5

Human HDAC4 = target: T3, Human HDAC4 (Homo sapiens, UniProt P56524); assay: HDAC4 biochemical assay, class IIa-specific substrate; details: read-out: HDAC Isoform IC50 (nM) 4
T3 construct: amino acids 627-1085 with N-terminal GST tag; GST (N); host or cells: baculovirus expression system
T3 sequence (P56524 627-1084 limits assumed): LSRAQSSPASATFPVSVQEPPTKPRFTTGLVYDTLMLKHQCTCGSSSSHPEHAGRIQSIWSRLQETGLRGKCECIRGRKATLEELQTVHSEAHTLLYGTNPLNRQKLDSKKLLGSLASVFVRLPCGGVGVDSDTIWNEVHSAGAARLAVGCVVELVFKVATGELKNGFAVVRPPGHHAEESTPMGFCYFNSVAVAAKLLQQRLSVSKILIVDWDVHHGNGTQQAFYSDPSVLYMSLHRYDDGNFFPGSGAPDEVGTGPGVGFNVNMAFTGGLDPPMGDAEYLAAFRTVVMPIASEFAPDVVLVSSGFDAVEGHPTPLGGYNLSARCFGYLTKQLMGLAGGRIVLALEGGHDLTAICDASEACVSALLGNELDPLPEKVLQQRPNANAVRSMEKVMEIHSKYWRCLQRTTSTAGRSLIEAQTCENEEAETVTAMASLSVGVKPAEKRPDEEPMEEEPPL
Summary of the method: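 GST-tagged human HDAC4 (aa 627-1085, baculovirus) at 0.004 ng/ul was incubated 30 min at room temperature with 50 μM class IIa-specific substrate BOC-Lys(trifluoroacetyl)-AMC in Tris-HCl pH 8.0 buffer with BSA, 1% DMSO. Developer then released AMC, read at 360/460 nm.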

Human HDAC5 = target: T4, Human HDAC5 (Homo sapiens, UniProt Q9UQL6); assay: HDAC5 biochemical assay, class IIa-specific substrate; details: read-out: HDAC Isoform IC50 (nM) 5
T4 construct: full length with C-terminal His tag, MW=51.1 kDa; His (C); host or cells: baculovirus expression system
T4 sequence (Q9UQL6 656-1122 limits assumed): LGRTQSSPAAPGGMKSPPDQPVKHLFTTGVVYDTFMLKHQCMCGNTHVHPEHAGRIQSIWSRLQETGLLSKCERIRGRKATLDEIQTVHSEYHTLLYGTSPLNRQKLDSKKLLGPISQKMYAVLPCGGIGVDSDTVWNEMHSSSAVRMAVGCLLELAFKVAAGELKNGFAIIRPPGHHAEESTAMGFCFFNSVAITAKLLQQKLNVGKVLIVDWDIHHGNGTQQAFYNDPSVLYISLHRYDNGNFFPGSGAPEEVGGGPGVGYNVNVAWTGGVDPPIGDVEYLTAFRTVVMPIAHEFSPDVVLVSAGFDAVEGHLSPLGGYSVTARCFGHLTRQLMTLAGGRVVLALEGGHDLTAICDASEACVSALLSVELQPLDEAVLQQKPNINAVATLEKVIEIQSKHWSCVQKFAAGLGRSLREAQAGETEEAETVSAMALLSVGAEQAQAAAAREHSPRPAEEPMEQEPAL
Summary of the method: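 Full-length C-terminal His-tagged HDAC5 from baculovirus (0.05 ng/ul) incubated 30 min at room temperature with 50 μM Boc-Lys(trifluoroacetyl)-AMC and compound, Tris pH 8.0 buffer with BSA, 1% DMSO. Developer then releases AMC; fluorescence 360/460 nm.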

Human HDAC8 = target: T5, Human HDAC8 (Homo sapiens, UniProt Q9BY41); assay: HDAC8 biochemical assay, AMC-labeled peptide substrate; details: read-out: HDAC Isoform IC50 (nM) 8
T5 construct: full length with C-terminal His tag, MW=42.6 kDa; His (C); host or cells: baculovirus expression system
T5 sequence (Q9BY41 1-377): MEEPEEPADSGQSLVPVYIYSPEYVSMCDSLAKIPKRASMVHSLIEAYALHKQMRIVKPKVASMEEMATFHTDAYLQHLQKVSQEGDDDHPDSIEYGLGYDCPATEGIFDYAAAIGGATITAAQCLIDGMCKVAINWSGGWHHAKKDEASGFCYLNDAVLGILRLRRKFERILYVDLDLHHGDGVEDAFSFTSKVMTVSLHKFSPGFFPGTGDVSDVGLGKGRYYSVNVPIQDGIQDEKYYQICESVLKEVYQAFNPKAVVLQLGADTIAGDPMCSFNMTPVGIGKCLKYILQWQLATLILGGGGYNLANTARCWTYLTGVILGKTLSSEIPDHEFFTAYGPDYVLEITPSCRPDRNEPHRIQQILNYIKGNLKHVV
Experimental: as §1, §2
Human HDAC8 (GenBankAccession No. NM_018486), full length with C-terminal His tag, MW=42.6 kDa, expressed in a baculovirus expression system.
as §3
HDAC8: 1 ng/ul HDAC8 and 100 µM HDAC8 substrate are in the reaction buffer with 1% DMSO final. Incubate for 2 hours at 30° C.
as §4, §5

Human HDAC9 = target: T6, Human HDAC9 (Homo sapiens, UniProt Q9UKV0); assay: HDAC9 biochemical assay, class IIa-specific substrate; details: read-out: HDAC Isoform IC50 (nM) 9
T6 construct: amino acids 604-1066 with C-terminal His tag; His (C); host or cells: baculovirus expression system
T6 sequence (Q9UKV0 604-1066 isoform Q9UKV0-5): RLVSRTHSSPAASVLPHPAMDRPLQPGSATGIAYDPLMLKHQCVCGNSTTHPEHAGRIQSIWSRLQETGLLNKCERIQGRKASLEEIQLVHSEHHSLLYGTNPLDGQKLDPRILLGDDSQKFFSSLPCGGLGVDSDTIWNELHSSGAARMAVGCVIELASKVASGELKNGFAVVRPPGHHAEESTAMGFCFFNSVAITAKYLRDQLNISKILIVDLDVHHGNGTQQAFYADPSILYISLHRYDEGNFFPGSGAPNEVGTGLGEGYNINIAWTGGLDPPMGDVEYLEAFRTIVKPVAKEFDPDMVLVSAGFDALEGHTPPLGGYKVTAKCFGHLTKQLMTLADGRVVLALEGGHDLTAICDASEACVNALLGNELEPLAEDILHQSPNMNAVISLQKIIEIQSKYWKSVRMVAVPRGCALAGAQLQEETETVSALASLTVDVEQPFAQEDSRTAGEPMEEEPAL
Summary of the method: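 HDAC9 residues 604-1066 (C-terminal His tag, baculovirus-expressed) at 0.06 ng/ul with 50 μM class IIa substrate Boc-Lys(trifluoroacetyl)-AMC in Tris-HCl pH 8.0 buffer with BSA and 1% DMSO. 30 min at room temperature, then developer added; fluorescence read at 360/460 nm Ex/Em.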

T1 sequence (Q92769 whole entry, canonical isoform): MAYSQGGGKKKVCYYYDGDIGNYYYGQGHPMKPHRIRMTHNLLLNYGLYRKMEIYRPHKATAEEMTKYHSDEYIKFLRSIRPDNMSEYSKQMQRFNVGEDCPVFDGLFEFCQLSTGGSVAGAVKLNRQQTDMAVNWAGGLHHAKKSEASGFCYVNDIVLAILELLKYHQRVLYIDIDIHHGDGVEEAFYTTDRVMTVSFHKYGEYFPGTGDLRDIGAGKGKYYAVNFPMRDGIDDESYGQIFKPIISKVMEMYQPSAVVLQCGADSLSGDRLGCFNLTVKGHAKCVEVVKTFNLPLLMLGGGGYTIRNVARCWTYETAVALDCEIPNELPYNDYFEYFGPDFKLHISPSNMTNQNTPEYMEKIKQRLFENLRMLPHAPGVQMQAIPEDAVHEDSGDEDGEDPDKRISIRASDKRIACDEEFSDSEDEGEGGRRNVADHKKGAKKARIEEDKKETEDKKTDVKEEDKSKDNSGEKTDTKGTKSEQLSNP

IC50 (Human HDAC2) [nM] | IC50 [1] [nM] | IC50 (Human HDAC4) [nM] | IC50 (Human HDAC5) [nM] | IC50 (Human HDAC8) [nM] | IC50 (Human HDAC9) [nM] | SMILES
> 10000 | ≤ 10000 | ≤ 500 | ≤ 500 | ≤ 10000 | ≤ 1000 | O=C(c1ccc(N(Cc2ccc(-c3noc(C(F)(F)F)n3)s2)c2cnccn2)nn1)N1C[C@@H]2C[C@H]1C[S@@+]2[O-] [Example FR, (1S,2R,4S)-5-{6-[(Pyrazin-2-yl)({5-[5-(trifluoromethyl)-1,2,4-oxadiazol-3-yl]thiophen-2-yl}methyl)amino]pyridazine-3-carbonyl}-2-thia-5-azabicyclo[2.2.1]heptan-2-ium-2-olate]
> 10000 | ≤ 10000 | ≤ 500 | ≤ 500 | ≤ 1000 | ≤ 500 | O=C(c1ccc(N(Cc2ccc(-c3noc(C(F)(F)F)n3)s2)c2cnccn2)nn1)N1CC(O)(C(F)(F)F)C1 [Example FK, 1-{6-[(Pyrazin-2-yl)({5-[5-(trifluoromethyl)-1,2,4-oxadiazol-3-yl]thiophen-2-yl}methyl)amino]pyridazine-3-carbonyl}-3-(trifluoromethyl)azetidin-3-ol]
> 10000 | > 10000 | ≤ 500 | ≤ 500 | ≤ 10000 | ≤ 1000 | Cc1nccnc1N(Cc1ccc(-c2noc(C(F)(F)F)n2)s1)c1cnccn1 [Example BE, 3-Methyl-N-(pyrazin-2-yl)-N-({5-[5-(trifluoromethyl)-1,2,4-oxadiazol-3-yl]thiophen-2-yl}methyl)pyrazin-2-amine]
> 10000 | > 10000 | ≤ 1000 | ≤ 500 | ≤ 10000 | ≤ 10000 | FC(F)(F)c1nc(-c2ccc(CN(c3cnccn3)c3cc(N4CCOCC4)cnn3)s2)no1 [Example FP, 5-(Morpholin-4-yl)-N-(pyrazin-2-yl)-N-({5-[5-(trifluoromethyl)-1,2,4-oxadiazol-3-yl]thiophen-2-yl}methyl)pyridazin-3-amine]
> 10000 | ≤ 10000 | ≤ 10000 | ≤ 1000 | ≤ 10000 | ≤ 10000 | O=C(O)c1cnnc(N(Cc2sc(-c3noc(C(F)(F)F)n3)cc2F)c2cnccn2)c1 [Example FA, 6-[({3-fluoro-5-[5-(trifluoromethyl)-1,2,4-oxadiazol-3-yl]thiophen-2-yl}methyl)(pyrazin-2-yl)amino]pyridazine-4-carboxylic acid]
> 10000 | > 10000 | ≤ 10000 | ≤ 10000 | ≤ 10000 | ≤ 10000 | NC(=O)c1nccnc1N(Cc1ccc(-c2noc(C(F)(F)F)n2)s1)c1cnccn1 [Example GO, 3-[(Pyrazin-2-yl)({5-[5-(trifluoromethyl)-1,2,4-oxadiazol-3-yl]thiophen-2-yl}methyl)amino]pyrazine-2-carboxamide]
> 10000 | > 10000 | ≤ 1000 | ≤ 500 | ≤ 10000 | ≤ 10000 | O=C(c1cnnc(N(Cc2ccc(-c3noc(C(F)(F)F)n3)s2)c2cnccn2)c1)N1CCC12COC2 [Example GF, 5-{6-Oxa-1-azaspiro[3.3]heptane-1-carbonyl}-N-(pyrazin-2-yl)-N-({5-[5-(trifluoromethyl)-1,2,4-oxadiazol-3-yl]thiophen-2-yl}methyl)pyridazin-3-amine]
> 10000 | ≤ 10000 | ≤ 500 | ≤ 500 | ≤ 10000 | ≤ 1000 | O=C(c1ccc(N(Cc2ccc(-c3noc(C(F)(F)F)n3)s2)c2cnccn2)nn1)N1CCC2(COC2)C1 [Example FJ, 6-{2-Oxa-6-azaspiro[3.4]octane-6-carbonyl}-N-(pyrazin-2-yl)-N-({5-[5-(trifluoromethyl)-1,2,4-oxadiazol-3-yl]thiophen-2-yl}methyl)pyridazin-3-amine]
> 10000 | > 10000 | ≤ 10000 | ≤ 1000 | ≤ 10000 | ≤ 10000 | FC(F)(F)c1nc(-c2ccc(CN(c3cnccn3)c3ncccn3)s2)no1 [Example AS, N-(Pyrimidin-2-yl)-N-({5-[5-(trifluoromethyl)-1,2,4-oxadiazol-3-yl]thiophen-2-yl}methyl)pyrazin-2-amine]
> 10000 | ≤ 10000 | ≤ 1000 | ≤ 1000 | ≤ 10000 | ≤ 10000 | FC(F)(F)c1nc(-c2ccc(CN(c3cnccn3)c3cnc(N4CCOCC4)cn3)s2)no1 [Example BM, 5-(Morpholin-4-yl)-N-(pyrazin-2-yl)-N-({5-[5-(trifluoromethyl)-1,2,4-oxadiazol-3-yl]thiophen-2-yl}methyl)pyrazin-2-amine]
> 10000 | > 10000 | ≤ 10000 | ≤ 10000 | ≤ 10000 | ≤ 10000 | FC(F)(F)c1cnnc(N(Cc2ccc(-c3noc(C(F)(F)F)n3)s2)c2cnccn2)c1 [Example EF, N-(Pyrazin-2-yl)-5-(trifluoromethyl)-N-({5-[5-(trifluoromethyl)-1,2,4-oxadiazol-3-yl]thiophen-2-yl}methyl)pyridazin-3-amine]
> 10000 | > 10000 | ≤ 10000 | ≤ 10000 | ≤ 10000 | ≤ 10000 | O=C(c1nccnc1N(Cc1ccc(-c2noc(C(F)(F)F)n2)s1)c1cnccn1)N1CC(O)(C(F)(F)F)C1 [Example GQ, 1-{3-[(Pyrazin-2-yl)({5-[5-(trifluoromethyl)-1,2,4-oxadiazol-3-yl]thiophen-2-yl}methyl)amino]pyrazine-2-carbonyl}-3-(trifluoromethyl)azetidin-3-ol]

SMILES | IC50 (Human HDAC2) [nM] | IC50 [1] [nM] | IC50 (Human HDAC4) [nM] | IC50 (Human HDAC5) [nM] | IC50 (Human HDAC8) [nM] | IC50 (Human HDAC9) [nM]
[O-][S+]1CCN(Cc2ccc(N(Cc3ccc(-c4noc(C(F)(F)F)n4)s3)c3cnccn3)nn2)CC1 [Example FO, 4-({6-[(Pyrazin-2-yl)({5-[5-(trifluoromethyl)-1,2,4-oxadiazol-3-yl]thiophen-2-yl}methyl)amino]pyridazin-3-yl}methyl)-1lambda4-thiomorpholin-1-one] | > 10000 | > 10000 | ≤ 1000 | ≤ 1000 | ≤ 10000 | ≤ 10000
